assay: The compound was tested at a concentration of 1 uM for inhibitory activity against 17 beta-hydroxysteroid dehydrogenase from human placental microsomes

| SMILES | inhibition [%] |
| --- | --- |
| COc1ccc2c(c1)CC[C@@H]1[C@@H]2CC[C@@]2(C)[C@H]1CC[C@@]21CCC(=O)O1 | 55 |
| C[C@]12C=CC(=O)C=C1CCC1C2CC[C@@]2(C)C1CC[C@@]21CCC(=O)O1 (some centres undefined) | 6 |
| C[C@]12CCC(=O)CC1CC[C@@H]1[C@@H]2CC[C@@]2(C)[C@H]1CC[C@@]21CCC(=O)O1 (some centres undefined) | 25 |
| C[C@]12CC[C@@H]3c4ccc(O)cc4CC[C@H]3[C@@H]1CC[C@@]21CCC(=O)O1 | 81 |

Continued, values first:

| inhibition [%] | SMILES |
| --- | --- |
| 11 | C[C@]12CC[C@@]3(CCC(=O)O3)CC1CC[C@@H]1[C@@H]2CC[C@@]2(C)[C@H]1CC[C@@]21CCC(=O)O1 (some centres undefined) |
| 3 | C[C@]12CCC(=O)C=C1C(=O)CC1C2CC[C@@]2(C)C1CC[C@@]21CCC(=O)O1 (some centres undefined) |
| 3 | C[C@]12CCC(=O)C=C1CC[C@@H]1[C@@H]2CC[C@@]2(C)[C@H]1CC[C@@]21CCC(=O)O1 |
| 11 | C[C@]12CC[C@@H]3c4ccc(OCc5ccccc5)cc4CC[C@H]3[C@@H]1CC[C@@]21CCC(=O)O1 |
| 28 | C[C@]12CCC(=O)CC1C(=O)C[C@@H]1[C@@H]2CC[C@@]2(C)[C@H]1CC[C@@]21CCC(=O)O1 (some centres undefined) |

Reference: ChEMBL document CHEMBL1128186, “Steroidal spiro-gamma-lactones that inhibit 17 beta-hydroxysteroid dehydrogenase activity in human placental microsomes” (J Med Chem, 1995)
